Consider 104 molecules from PubChem BioAssay AID1996.

≈ marks a conversion by molar mass, not a printed value. Where only a bound is given, the exact number is not on record here.

Usually kinetic solubility stands for solubility judged after dilution from a stock solution rather than from solid.

The conditions of the series: buffer; pH 7.4; 200.0 µM.
Molecule `O=C(COC(=O)c1cc2ccccc2o1)NCc1ccco1` yielded a kinetic solubility of 17 µg/mL (≈ 56.8 µM).
Next, `Nc1cc(N)nc(SCC(=O)Nc2ccc3c(c2)OCO3)n1`: 47.2 µg/mL (≈ 148 µM).
In the case of `Cc1cc(C)nc(NCc2ccc(Cl)cc2)n1.Cl`, the solubility (kinetic) turned out to be 5.4 µg/mL.
To `COCc1ccc(CN2CCC(CO)(CC3CCCCO3)CC2)o1` (centres undefined) belongs above 50.6 µg/mL; to `CC1CN(Cc2ccccc2)C(C)CC1O` (centres undefined), above 32.9 µg/mL; to `CCc1ccc(C(C)NC(=O)c2ccc3c(c2)OCO3)cc1` (centres undefined), 1.6 µg/mL (≈ 5.38 µM).
Next, `COc1ccc(NC(=O)CN2C(=O)C(=O)N(C3CCCC3)C2=O)c(OC)c1`: above 56.3 µg/mL.
The molecule `Cc1ccc(NC(=O)c2cc(-c3ccccc3)n(CCCN3CCOCC3)c2C)cc1` gave a solubility (kinetic) of 19.9 µg/mL (≈ 47.7 µM).
`O=C(Nc1ccon1)Nc1ccccc1C(F)(F)F` had a kinetic solubility above 40.7 µg/mL.
Next, `CC1CN(CCn2cnc3c(N)ncnc32)CC(C)O1` (centres undefined): 36.9 µg/mL (≈ 134 µM); `Cc1ccccc1C(=O)Nc1ccc(N2CCCC2)cc1.Cl`: 7.8 µg/mL; `O=C(COC(=O)Cc1ccc(Cl)cc1)NCc1ccco1`: above 46.2 µg/mL.
Next, `CSCC(C)N1CCC(CCC(=O)NC2CC2)CC1` (centres undefined): above 42.7 µg/mL; `O=S(=O)(NCc1csc(-c2cccs2)n1)c1cccs1`: 49 µg/mL (≈ 143 µM).
To `O=C(c1cccc2ccccc12)N1CCCCC1` belongs 34.9 µg/mL (≈ 146 µM); to `O=C1CSC(c2ccc(Cl)cc2)N1c1cccnc1` (centres undefined), 42.1 µg/mL (≈ 145 µM).
`O=C(C1CCC1)N1CCN(c2ccnc3cc(Cl)ccc23)CC1` had a solubility (kinetic) of 45.4 µg/mL (≈ 138 µM).
`CCOC(=O)C(=O)Nc1cc(C)on1` returned a kinetic solubility above 29.7 µg/mL.
`CC[C@H](CO)NCCN[C@H](CC)CO.Cl`: the solubility (kinetic) is above 41.6 µg/mL.
Consider `COc1ccccc1C(=O)NC(CCSC)C(=O)Nc1ccc(C)c(S(=O)(=O)N2CCOCC2)c1` (centres undefined), for which the kinetic solubility was 19.2 µg/mL (≈ 36.8 µM).
Next, `COc1cc(NC(=O)C(C)C)ccc1NC(=O)c1cc2ccccc2o1`: 0.7 µg/mL (≈ 1.99 µM); `COc1cccc(N2CN(C3CCCCC3)CNC2=S)c1`: above 45.8 µg/mL; `O=C(COC(=O)c1cccc(S(=O)(=O)N2CCOCC2)c1)NCc1ccc2c(c1)OCO2`: 66.8 µg/mL (≈ 144 µM).
To `CC(=O)Nc1cccc(OCCCNC(=O)c2cccc3ccccc23)c1` belongs 46.8 µg/mL (≈ 129 µM); to `NC(=S)Nc1ccc(Cl)c(Cl)c1`, above 33.2 µg/mL.
As to `O=S(=O)(c1ccc(Cl)nc1)N1CCC(Cc2ccccc2)CC1`, the solubility (kinetic) was determined as 2.5 µg/mL (≈ 7.13 µM).
As to `CC(C)(CO)Nc1nc(Cl)nc(NC2CCCCC2)n1`, the solubility (kinetic) turned out to be 36.5 µg/mL (≈ 122 µM). Against the preceding molecule, the solubility kinetic is about 15-fold higher.
To `CC#CC(=O)N1CCC(CO)(CCc2ccccc2)CC1` belongs 41.8 µg/mL (≈ 146 µM); to `CN1C(=O)C(c2ccc([N+](=O)[O-])cc2[N+](=O)[O-])C(=O)N(C)C1=O`, above 48.3 µg/mL; to `Cc1ccc2oc(C(=O)N(C)Cc3cnccn3)c(C)c2c1`, above 44.3 µg/mL.
`COc1cc(/C=C/C(=O)O)cc(S(=O)(=O)N2CCCc3ccccc32)c1OC` had a kinetic solubility of 45.3 µg/mL (≈ 112 µM).
`COC(=O)c1ccc(NC(=O)C2C3C=CC(C3)C2C(=O)O)cc1` (centres undefined) displayed a kinetic solubility above 47.3 µg/mL.
To `O=C1N=C(N2CCOCC2)S/C1=C\c1cccnc1` belongs above 41.3 µg/mL; to `O=C(c1ccc(Br)cc1)N1CCN(Cc2ccccc2)CC1`, 38.9 µg/mL (≈ 108 µM).
For the molecule `O=C(NNC(=O)c1ccccc1-n1cccc1)c1ccc(F)cc1`, the solubility (kinetic) was above 48.5 µg/mL.
Next, `COc1ccccc1C(=O)NCCC(=O)NCc1ccncc1`: above 47 µg/mL; `O=C(c1ccc(COCC(F)(F)F)o1)N1CCCC1`: 40.3 µg/mL (≈ 145 µM).
Next, `Cc1cc(C)nc(SSc2nc(C)cc(C)n2)n1`: 40.6 µg/mL (≈ 146 µM); `S=C1NCN(Cc2ccco2)CN1c1ccccc1`: above 41 µg/mL.
Take `CCN1CCN(C(=O)/C=C/c2ccc3c(c2)OCO3)CC1`: the solubility (kinetic) is above 43.3 µg/mL.
Next, `O=C(CNC(=O)c1ccccc1)NCc1ccc(Cl)cc1`: 10.6 µg/mL (≈ 35 µM); `COc1ccc(/C=C/C(=O)c2cc3c(cc2N)OCO3)cc1`: 1.6 µg/mL (≈ 5.38 µM).
Molecule `Cc1cccc(NC(=O)c2ccc(Cl)nc2)n1` had a kinetic solubility above 37.2 µg/mL.
For `O=C(Nc1ccc(Cl)cc1F)C1CC(=O)N(Cc2ccco2)C1` (centres undefined), the kinetic solubility was above 50.5 µg/mL.
Next, `O=C(NC(=S)Nc1ccc2nc[nH]c2c1)c1ccccc1`: 35 µg/mL (≈ 118 µM); `S=c1[nH]nc(C2(c3ccccc3)CCCC2)o1`: above 36.9 µg/mL; `Cc1ccc(C2=NC3(CCCC3)NC2=S)cc1`: 2.2 µg/mL (≈ 9 µM).
To `CC(C)COc1nc2ccccc2nc1N1CCN(C)CC1` belongs 33.9 µg/mL (≈ 113 µM); to `CCN(CC(=O)Nc1c(F)cccc1F)C(=O)c1cnccn1`, above 48 µg/mL; to `Nc1ccn([C@H]2C[C@H](O)[C@@H](CO)O2)c(=O)n1.O`, above 36.8 µg/mL.
Molecule `CC1CCCCC1NC(=O)CCS(=O)(=O)c1ccc(Cl)cc1` (centres undefined) came in with a kinetic solubility of 22.8 µg/mL (≈ 66.3 µM).
`COc1ccccc1OCCn1c(=S)[nH]c2ccccc21`: the kinetic solubility was determined as 1.4 µg/mL (≈ 4.66 µM).
`C=CCNC(=O)C(=O)NCCCN1CCOCC1`: the solubility (kinetic) is above 38.3 µg/mL.
In the case of `CCCOc1ccccc1Cn1c(=O)oc2ccccc21`, the solubility (kinetic) amounted to 3.9 µg/mL (≈ 13.8 µM).
`O=C(c1ccc(S(=O)(=O)Nc2ccccc2)cc1)N1CCC1` showed a kinetic solubility above 47.5 µg/mL.
Molecule `CS(=O)(=O)Oc1ccc2c(c1)O/C(=C\c1cccnc1)C2=O` showed a kinetic solubility of 5 µg/mL (≈ 15.8 µM).
To `O=C(CSc1ccccc1C(=O)O)NCC1CCCCC1` belongs 44.2 µg/mL (≈ 144 µM); to `Cc1ccc2ccc(S(=O)(=O)NCc3ccccn3)cc2c1`, 7 µg/mL (≈ 22.4 µM).
To `CC(=O)c1ccc(NC(=O)C(C)Sc2nnc(-c3ccncc3)n2C2CC2)cc1` (centres undefined) belongs above 61.1 µg/mL; to `CCOC(=O)c1cc2sccc2n1CC(=O)C(C)(C)C`, below 0.6 µg/mL; to `C=CCN1C(=O)C(=O)N(Cc2nc3ccccc3s2)C1=O`, above 45.2 µg/mL.
`CN(C)c1nc(NCc2ccccc2)nc(SCC(N)=O)n1`: the kinetic solubility was determined as 43.7 µg/mL (≈ 137 µM).
In turn, `Cn1c(=O)c2c(nc(NNC(=O)C(F)(F)F)n2C)n(C)c1=O` came in with a kinetic solubility above 48 µg/mL.
`O=C(OCC(=O)N1CCCCCC1)c1ccc(Cl)nc1` yielded a kinetic solubility above 44.5 µg/mL.
With `O=C(CNC(=O)c1ccc(Br)o1)NCc1cccc(Cl)c1`, the solubility (kinetic) came out at 55.5 µg/mL (≈ 149 µM).
For the molecule `NC(N)=Nc1nc2cc([N+](=O)[O-])ccc2o1`, the kinetic solubility worked out at 6.4 µg/mL (≈ 28.9 µM). Against the preceding molecule, the solubility kinetic is about 8.7-fold lower.
The molecule `Cl.c1ccc(Cc2ccc(OCCn3ccnc3)cc2)cc1` gave a kinetic solubility of 41.3 µg/mL.
Next, `N#Cc1ccc(OCC(=O)NCC2COc3ccccc3O2)cc1` (centres undefined): above 48.7 µg/mL; `Nc1ccccc1C(=O)NCC1(c2ccccc2)CCCC1`: above 44.2 µg/mL; `COc1ccc(C2=CSC3=NCCN23)cc1Cl`: 38.4 µg/mL (≈ 144 µM).
For the molecule `Nc1nonc1C(=O)NCCNC(=O)c1cccc(Cl)c1`, the kinetic solubility was 45.8 µg/mL (≈ 148 µM).
In turn, `CC(CCc1ccccc1)NS(=O)(=O)c1ccccc1Cl` (centres undefined) had a kinetic solubility of 20 µg/mL (≈ 61.8 µM).
To `Cc1ccc(CNS(=O)(=O)c2ccccc2[N+](=O)[O-])cc1` belongs 38.7 µg/mL (≈ 126 µM).
In the case of `Cc1ccc(Cn2c(=S)[nH]c3ccccc3c2=O)cc1`, the solubility (kinetic) is below 0.3 µg/mL.
To `O=c1c2ccccc2nc(/C=C/c2ccc(Br)cc2)n1CCO` belongs 0.8 µg/mL (≈ 2.15 µM); to `CCCCCCCCn1c(=O)c(C(=O)OC)c(N)c2ccccc21`, 0.9 µg/mL (≈ 2.72 µM).
`COC(=O)Cc1c(O)ccn(Cc2ccc3c(c2)OCO3)c1=O` yielded a solubility (kinetic) above 47.6 µg/mL.
`COc1ccccc1C1CCN(C(=O)C2CCCCC2)CC1` showed a kinetic solubility of 38.6 µg/mL (≈ 128 µM).
Next, `NS(=O)(=O)c1ccc(CCNC(=O)COC(=O)C2COc3ccccc3O2)cc1` (centres undefined): above 63.1 µg/mL; `O=C(CCN1C(=O)c2ccccc2C1=O)NCc1ccc(F)cc1`: above 48.9 µg/mL; `CCCCOC(=O)c1ccc(NC(=O)C(=O)NCCN(CC)CC)cc1`: 44.3 µg/mL (≈ 122 µM).
On to `CC(=O)c1cccc(NC(=O)C(C)OC(=O)C2CCC2)c1` (centres undefined), for which the solubility (kinetic) is above 43.4 µg/mL.
In the case of `Nc1cccc(C(=O)NCCNC(=O)c2cccc(N)c2)c1`, the kinetic solubility is above 44.8 µg/mL.
The molecule `COC(=O)c1cc(COC(=O)CNC(=O)c2ccc(Br)cc2)oc1C` returned a solubility (kinetic) of 6.8 µg/mL (≈ 16.6 µM).
On to `COc1ccc([N+](=O)[O-])cc1NC(=O)Nc1ccc(OC)c(OC)c1`, for which the kinetic solubility is 0.3 µg/mL (≈ 0.864 µM). This solubility kinetic is about 23-fold lower than that of the molecule before.
To `CCOc1ccccc1NC(=O)COC(=O)C1CCC(=O)N1` (centres undefined) belongs above 45.9 µg/mL; to `Cc1c(Cl)cccc1NC(=O)CS(=O)(=O)c1ccccc1`, 30.3 µg/mL (≈ 93.6 µM).
Turning to `Cc1nn(CC(=O)Nc2ccc(N3CCOCC3)cc2)c(C)c1[N+](=O)[O-]`, the kinetic solubility was above 53.9 µg/mL.
For `O=C(NCc1cccnc1)c1ccc(NS(=O)(=O)c2cccc([N+](=O)[O-])c2)cc1`, the solubility (kinetic) was above 61.9 µg/mL.
To `CC(=O)Nc1ccc(C(=O)OCc2ccccc2Br)cc1` belongs below 0.7 µg/mL; to `O=[N+]([O-])c1cc(/C=N/N2CCOCC2)cs1`, above 36.2 µg/mL; to `Cn1c(=O)n(Cc2ccccc2Br)c2ccccc21`, 7.8 µg/mL (≈ 24.6 µM).
To `Cc1ccc(C)c(NC(=O)c2nc(Cl)ccc2Cl)c1` belongs 3.2 µg/mL (≈ 10.8 µM).
Molecule `Cc1[nH]c2ccccc2c1CC#N` came in with a solubility (kinetic) of 21.3 µg/mL (≈ 125 µM).
Next, `CC(=O)N(C)c1ccc(C(O)(C(F)(F)F)C(F)(F)F)cc1`: above 47.3 µg/mL.
To `Cc1ccc(-c2nc(N)sc2C)cc1` belongs 30.2 µg/mL (≈ 148 µM).
Next, `CC1(C)CC2CC(C)(CN2C(=S)Nc2ccccc2)C1` (centres undefined): 41.6 µg/mL (≈ 144 µM).
With `O=C(C1=C(O)C(=O)N(Cc2cccnc2)C1c1cccc(Oc2ccccc2)c1)c1ccco1` (centres undefined), the kinetic solubility was above 67.9 µg/mL.
`COc1ccc(-c2cc(C(F)(F)F)nc(N)n2)cc1` showed a kinetic solubility of 1.4 µg/mL (≈ 5.2 µM).
To `OCc1nc2ccccc2n1CCCCOc1ccccc1` belongs above 44.5 µg/mL.
For the molecule `CS(=O)(=O)N1CCC(C(=O)N2CCN(c3ccccc3F)CC2)CC1`, the solubility (kinetic) was determined as 53.1 µg/mL (≈ 144 µM).
Next, `CC(C)(C)C(=O)N(Cc1ccccc1)c1ccccn1`: 40.2 µg/mL (≈ 150 µM).
To `CC(OC(=O)C1CC1)C(=O)Nc1cc(C(F)(F)F)ccc1Cl` (centres undefined) belongs 32 µg/mL (≈ 95.3 µM).
Next, `CCC1(c2ccc(F)cc2)NC(=O)N(CC(=O)NC2CCCCCC2)C1=O` (centres undefined): 10.4 µg/mL (≈ 27.7 µM).
